Converted amounts (≈) assume the structure as drawn. Where a SMILES comes first, the peptide text is derived from it. [ ]: non-standard residue; d: D form. The star is where a group is joined. d(aIle) = CC[C@H](C)[C@@H](N)C(=O)O; dDab = NCC[C@@H](N)C(=O)O; Octanoyl = CCCCCCCC(=O)*; Dab = NCC[C@H](N)C(=O)O
Assays:
A. baumannii HUMC1 = assay type: cell-based, Acinetobacter baumannii; conditions: HUMC1, 20 h
Method: (§1) All minimum inhibitory concentrations (MICs) were determined according to the Clinical and Standards Laboratory Institute (CLSI) guidelines. In brief, agar plates were inoculated from glycerol stocks and incubated overnight at 35 °C. Peptide DMSO stocks were dispensed into 96-well round-bottom plates using a TECAN D300e dispenser. Colistin sulfate (Sigma-Aldrich) was dissolved in water and serially diluted in a cation-adjusted Mueller Hinton broth (10 μL per well). Final concentrations of the test compounds were 0.06 to 64 μg/mL. Inocula were prepared by direct colony suspension in NaCl at 0.5 MacFarland, which was further diluted 200-fold in cation-adjusted Mueller Hinton broth for a target inoculum of 2 × 10^5 colony forming units (CFUs)/mL. 100 μL portion of the prepared inoculum was added to each well of the prepared plates containing the test compounds. Plates were sealed with parafilm and incubated for 20 h at 35 °C. Images of all plates were recorded, and MIC was assessed visually.

A. baumannii IHMA 777621 = assay type: cell-based, Acinetobacter baumannii; conditions: IHMA 777621, 20 h
Method: as §1

A. baumannii ATCC 17978 = assay type: cell-based, Acinetobacter baumannii; conditions: ATCC 17978, 20 h
Method: as §1

ATCC 25922 = assay type: cell-based, Enterococcus faecalis; conditions: ATCC 25922, 20 h
Method: as §1

E. faecalis ATCC 29212 = assay type: cell-based, Enterococcus faecalis; conditions: ATCC 29212, 20 h
Method: as §1

[1] = test system: Gram-positive bacteria (Staphylococcus aureus, Enterococcus faecalis, Enterococcus faecium); test: MIC, summary over Gram-positive strains; assay type: cell-based; conditions: at a concentration of 64 μg/mL; summary of Table 2
Method: as §1

E. coli ATCC 25922 = assay type: cell-based, Escherichia coli; conditions: ATCC 25922, 20 h
Method: as §1

E. coli 1220120 = assay type: cell-based, Escherichia coli; conditions: 1220120, 20 h
Method: as §1

E. coli 1214245 = assay type: cell-based, Escherichia coli; conditions: 1214245, 20 h
Method: as §1

K. pneumoniae 1228586 = assay type: cell-based, Klebsiella pneumoniae; conditions: 1228586, 20 h
Method: as §1

K. pneumoniae ATCC 13883 = assay type: cell-based, Klebsiella pneumoniae; conditions: ATCC 13883, 20 h
Method: as §1

K. pneumoniae 1227947 = assay type: cell-based, Klebsiella pneumoniae; conditions: 1227947, 20 h
Method: as §1

HepG2 cells = test: Cytotoxicity determination (CellTiter-Glo); assay type: cell-based; conditions: HepG2, medium without serum, 24 h, normalization to the untreated control, 1 to 128 μg/mL tested
Method: HepG2 cells were grown in EMEM (Sigma) supplemented with 2 mM glutamine and 10% fetal bovine serum (Fisher) at 37 °C, 5% CO2. 20′000 cells per well were seeded into clear tissue culture-treated 96-well plates and incubated for 24 h. Peptides, dissolved in DMSO, were dispensed into 96 deep well plates (TECAN D300e dispenser) and diluted to a final concentration of 1 to 128 μg/mL using fresh medium without serum. The next day, the old media were removed from the cells, and 200 μL of the prepared compound dilutions was added per well. Plates were incubated for another 24 h before assessing the cell viability using the CellTiter-Glo kit (Promega) according to the manufacturer’s protocol. IC50s were calculated after normalization to the untreated control.

E. faecium IHMA 890472 = assay type: cell-based, Enterococcus faecium; conditions: IHMA 890472, 20 h
Method: as §1

E. faecium ATCC 51559 = assay type: cell-based, Enterococcus faecium; conditions: ATCC 51559, 20 h
Method: as §1

[2] = test system: Gram-negative ESKAPE pathogens; assay type: cell-based; conditions: 20 h
Method: as §1

S. aureus UAMS-1625 = assay type: cell-based, Staphylococcus aureus; conditions: S. aureus UAMS-1625 (BV18); CLSI broth dilution, cation-adjusted Mueller Hinton broth, 20 h, 35 °C, read visually
Method: as §1

S. aureus 1126387 = assay type: cell-based, Staphylococcus aureus; conditions: 1126387, 20 h
Method: as §1

S. aureus ATCC 29213 = assay type: cell-based, Staphylococcus aureus; conditions: ATCC 29213, 20 h
Method: as §1

Rabbit red blood cells = test: Hemolysis assay; assay type: cell-based; conditions: rabbit red blood cells in PBS, 37 °C, 1 h, absorbance at 405 nm, normalization to the Triton X-100 control; 0.25 to 128 μg/mL tested
Method: Peptides, dissolved in DMSO, were dispensed into 96-well round-bottom microplates using a TECAN D300e dispenser and subsequently diluted with 100 μL of PBS. PBS or 2% Triton X-100 was used as negative and positive controls, respectively. Rabbit red blood cells (BioConcept) were diluted in PBS to a final concentration of 2%, and 100 μL was added to each well of the prepared 96-well plates. The final concentration of the test compounds was 0.25 to 128 μg/mL. Plates were incubated at 37 °C for 1 h and afterward subjected to centrifugation at 1000g for 5 min. Then, 30 μL of supernatant was transferred to a new round-bottom plate, and absorbance was measured at 405 nm (TECAN Infinite F200). EC50s were calculated after blank subtraction and normalization to the Triton control.

P. aeruginosa 1218019 = assay type: cell-based, Pseudomonas aeruginosa; conditions: 1218019, 20 h
Method: as §1

P. aeruginosa 1226072 = assay type: cell-based, Pseudomonas aeruginosa; conditions: 1226072, 20 h
Method: as §1

P. aeruginosa PAO1 = assay type: cell-based, Pseudomonas aeruginosa; conditions: PAO1, 20 h
Method: as §1

Structure (SMILES)	MIC (A. baumannii HUMC1)	MIC (A. baumannii IHMA 777621)	MIC (A. baumannii ATCC 17978)	MIC (ATCC 25922)	MIC (E. faecalis ATCC 29212)	MIC (E. coli ATCC 25922)	MIC (E. coli 1220120)	MIC (E. coli 1214245)	MIC (K. pneumoniae 1228586)	MIC (K. pneumoniae ATCC 13883)	MIC (K. pneumoniae 1227947)	IC50 on HepG2 w/o FCS (HepG2 cells)	MIC (E. faecium IHMA 890472)	MIC (E. faecium ATCC 51559)	MIC (S. aureus UAMS-1625)	MIC (S. aureus 1126387)	MIC (S. aureus ATCC 29213)	Hemolysis EC50 (Rabbit red blood cells)	MIC (P. aeruginosa 1218019)	MIC (P. aeruginosa 1226072)	also measured
CCCCCCCC(=O)N[C@@H](C(=O)N[C@H](CCN)C(=O)NCC(=O)N[C@H](CO)C(=O)N[C@H](Cc1c[nH]c2ccccc12)C(=O)N[C@@H](CO)C(=O)N[C@@H](CCN)C(=O)N[C@H](CCN)C(=O)N[C@@H](CCN)C(=O)N[C@@H](CCC(=O)O)C(=O)N[C@H](C(=O)N[C@@H](C(=O)N[C@@H](C)C(=O)O)[C@@H](C)CC)C(C)C)C(C)C [Oct-Dab9] (Octanoyl-[dV][dDab]G[dS][dW]S[Dab][dDab][Dab]EV[d(aIle)]A-OH)	>64 µg/mL	>64 µg/mL	>64 µg/mL	>64 µg/mL	>64 µg/mL	>64 µg/mL	>64 µg/mL	>64 µg/mL	>64 µg/mL	>64 µg/mL	>64 µg/mL	>128 µg/mL	>64 µg/mL	>64 µg/mL	>64 µg/mL	>64 µg/mL	>64 µg/mL	>128 µg/mL	>64 µg/mL	8 µg/mL (≈ 5.43 µM)	antibacterial activity against Gram-positive bacteria [1]: no antibacterial activity; MICs, range over Gram-negative pathogens [2]: 8 to 64 µg/mL; MIC (P. aeruginosa PAO1): >64 µg/mL
CCCCCCCC(=O)N[C@@H](C(=O)N[C@H](CCN)C(=O)NCC(=O)N[C@H](CO)C(=O)N[C@H](Cc1c[nH]c2ccccc12)C(=O)N[C@@H](CO)C(=O)N[C@@H](CCN)C(=O)N[C@H](CCN)C(=O)NCC(=O)N[C@@H](CCC(=O)O)C(=O)N[C@H](C(=O)N[C@@H](C(=O)N[C@@H](C)C(=O)O)[C@@H](C)CC)C(C)C)C(C)C [Oct-Gly9] (Octanoyl-[dV][dDab]G[dS][dW]S[Dab][dDab]GEV[d(aIle)]A-OH)	>64 µg/mL	>64 µg/mL	>64 µg/mL	>64 µg/mL	>64 µg/mL	16 µg/mL (≈ 11.2 µM)	16 µg/mL (≈ 11.2 µM)	16 µg/mL (≈ 11.2 µM)	8 µg/mL (≈ 5.59 µM)	16 µg/mL (≈ 11.2 µM)	32 µg/mL (≈ 22.4 µM)	>128 µg/mL	>64 µg/mL	>64 µg/mL	>64 µg/mL	>64 µg/mL	>64 µg/mL	>128 µg/mL	>64 µg/mL	32 µg/mL (≈ 22.4 µM)	antibacterial activity against Gram-positive bacteria [1]: no antibacterial activity; MICs, range over Gram-negative pathogens [2]: 8 to 64 µg/mL; MIC (P. aeruginosa PAO1): 64 µg/mL (≈ 44.7 µM)
CCCCCCCC(=O)N[C@@H](C(=O)N[C@H](CCN)C(=O)NCC(=O)N[C@H](CO)C(=O)N[C@H](Cc1c[nH]c2ccccc12)C(=O)N[C@@H](CO)C(=O)N[C@@H](CCN)C(=O)N[C@H](CCN)C(=O)N[C@H](C(=O)N[C@@H](CCC(=O)O)C(=O)N[C@H](C(=O)N[C@@H](C(=O)N[C@@H](C)C(=O)O)[C@@H](C)CC)C(C)C)C(C)C)C(C)C [Oct-Val9] (Octanoyl-[dV][dDab]G[dS][dW]S[Dab][dDab]VEV[d(aIle)]A-OH)	32 µg/mL (≈ 21.7 µM)	32 µg/mL (≈ 21.7 µM)	32 µg/mL (≈ 21.7 µM)	>64 µg/mL	64 µg/mL (≈ 43.5 µM)	4 µg/mL (≈ 2.72 µM)	4 µg/mL (≈ 2.72 µM)	4 µg/mL (≈ 2.72 µM)	8 µg/mL (≈ 5.43 µM)	2 µg/mL (≈ 1.36 µM)	8 µg/mL (≈ 5.43 µM)	>128 µg/mL	>64 µg/mL	64 µg/mL (≈ 43.5 µM)	>64 µg/mL	>64 µg/mL	>64 µg/mL	>128 µg/mL	16 µg/mL (≈ 10.9 µM)	16 µg/mL (≈ 10.9 µM)	MIC (P. aeruginosa PAO1): 64 µg/mL (≈ 43.5 µM)
CCCCCCCC(=O)N[C@@H](C(=O)N[C@H](CCN)C(=O)NCC(=O)N[C@H](CO)C(=O)N[C@H](Cc1c[nH]c2ccccc12)C(=O)N[C@@H](CO)C(=O)N[C@@H](CCN)C(=O)N[C@H](CCN)C(=O)N[C@@H](Cc1c[nH]cn1)C(=O)N[C@@H](CCC(=O)O)C(=O)N[C@H](C(=O)N[C@@H](C(=O)N[C@@H](C)C(=O)O)[C@@H](C)CC)C(C)C)C(C)C [Oct-His9] (Octanoyl-[dV][dDab]G[dS][dW]S[Dab][dDab]HEV[d(aIle)]A-OH)	>64 µg/mL	>64 µg/mL	>64 µg/mL	>64 µg/mL	>64 µg/mL	16 µg/mL (≈ 10.6 µM)	8 µg/mL (≈ 5.3 µM)	16 µg/mL (≈ 10.6 µM)	8 µg/mL (≈ 5.3 µM)	16 µg/mL (≈ 10.6 µM)	32 µg/mL (≈ 21.2 µM)	>128 µg/mL	>64 µg/mL	>64 µg/mL	>64 µg/mL	>64 µg/mL	>64 µg/mL	>128 µg/mL	2 µg/mL (≈ 1.32 µM)	4 µg/mL (≈ 2.65 µM)	MIC (P. aeruginosa PAO1): 32 µg/mL (≈ 21.2 µM)

Source: publication PMC11106739, “Discovery and Derivatization of Tridecaptin Antibiotics with Altered Host Specificity and Enhanced Bioactivity” (ACS Chemical Biology, 2024)
